The values that follow come from ChEMBL document CHEMBL1151237, “Chamuvarinin, an acetogenin bearing a tetrahydropyran ring from the roots of Uvaria chamae” (J Nat Prod, 2004).

The assay in a line: Cytotoxicity against human KB3-1 cells by colorimetric assay. The following applies: KB 3-1. Format: functional, cell-based.

The structures appear in SMILES notation.

Turning to `CCCCCCC1CCCC(C2CCC([C@H]3CC[C@H]([C@H](O)CCCCCCCCCCCCC4=C[C@H](C)OC4=O)O3)O2)O1` (some centres not stated) [CHAMUVARININ], the IC50 (as a rule, the concentration needed to halve the response being measured) was 0.8 nM. As for `CCCCCC[C@H](O)CCC[C@H](O)[C@H]1CC[C@H]([C@H]2CC[C@H]([C@H](O)CCCCCCCCCCCCC3=C[C@H](C)OC3=O)O2)O1` [SQUAMOCIN], the figure is 0.003 nM.
